In ChEMBL document CHEMBL4837221 (Eur J Med Chem, 2021):
Activity calls are given as the source filed them. No cut-off for these calls is given here.

What was measured:
K562 = test: Cytotoxicity against human K562 cells assessed as reduction in cell viability incubated for 72 hrs by MTT assay; format: functional, cell-based; conditions: K562, 72 h
[1] = Inhibition of rat liver TrxR using DTNB and NADPH as substrate preincubated for 10 mins followed by substrate addition; format: tissue-based
HepG2 = test: Cytotoxicity against human HepG2 cells assessed as reduction in cell viability incubated for 72 hrs by MTT assay; format: functional, cell-based; conditions: HepG2, 72 h
MDA-MB-231 = test: Cytotoxicity against human MDA-MB-231 cells assessed as reduction in cell viability incubated for 72 hrs by MTT assay; format: functional, cell-based; conditions: MDA-MB-231, 72 h
U-251 [2] = test: Cytotoxicity against human U-251 cells assessed as reduction in cell viability incubated for 72 hrs by MTT assay; format: functional, cell-based; conditions: U-251, 72 h
A549 = test: Cytotoxicity against human A549 cells assessed as reduction in cell viability incubated for 72 hrs by MTT assay; format: functional, cell-based; conditions: A549, 72 h
C6 = test: Cytotoxicity against rat C6 cells assessed as reduction in cell viability incubated for 72 hrs by MTT assay; format: functional, cell-based; conditions: C6, 72 h
HUVEC = test: Cytotoxicity against HUVEC cells assessed as reduction in cell viability incubated for 72 hrs by MTT assay; format: cell-based; conditions: Homo sapiens
U-87 MG = test: Cytotoxicity against human U87 cells assessed as reduction in cell viability incubated for 72 hrs by MTT assay; format: functional, cell-based, U-87MG ATCC
U-251 [3] = test: Inhibition of TrxR in human U-251 cells at 10 uM measured after 12 hrs by colorimetry; format: cell-based
[4] = Cytotoxicity against human U87/TMZ cells assessed as reduction in cell viability incubated for 72 hrs by MTT assay; format: functional, cell-based
U-251 [5] = test: Inhibition of mitochondrial respiration in human U-251 cells assessed as reduction in oxygen consumption rate at 10 uM pretreated for 24 hrs with sequential addition of oligomycin, FCCP and antimycin-A by seahorse XFe96 analyser based assay; format: functional, cell-based
[6] = Cytotoxicity against human SHG-44 cells assessed as reduction in cell viability incubated for 72 hrs by MTT assay; format: functional, cell-based; conditions: SHG-44, 72 h
[7] = Cytotoxicity against human […] cells assessed as reduction in cell viability incubated for 72 hrs by MTT assay; format: functional, cell-based
U-251 [8] = test: Induction of mitochondrial stress in human U-251 cells assessed as decrease in ATP production after 24 hrs by microplate reader analysis; format: functional, cell-based

IC50 [1] [µM] | SMILES | IC50 (K562) [µM] | IC50 (HepG2) [µM] | IC50 (MDA-MB-231) [µM] | IC50 (U-251 [2]) [µM] | IC50 (A549) [µM] | IC50 (C6) [µM] | IC50 (HUVEC) [µM] | IC50 (U-87 MG) [µM] | inhibition (U-251 [3]) | IC50 [4] [µM] | Activity (U-251 [5]) | IC50 [6] [µM] | IC50 [7] [µM] | Activity (U-251 [8])
> 100 | OCCCCCCCCCC[P+](c1ccccc1)(c1ccccc1)c1ccccc1 | > 100 | > 100 | > 100 | > 100 | > 100 |  |  |  |  |  |  |  |  | 
0.77 | COc1cc(/C=C/C(=O)/C=C(O)/C=C/c2ccc(O)cc2)ccc1O | 3.86 | 10.7 | 9.36 | 2.72 | 5.64 | 7.16 | 32.6 | 5.45 | Active | 21.5 | inactive | 4.98 | 17.3 | inactive
 | COc1cc(/C=C/C(=O)CC(=O)/C=C/c2ccc(O)c(OC)c2)ccc1O [CURCUMIN] | 46.8 |  | 31.4 | 25.8 | 24.2 |  |  |  |  |  |  |  |  | 
